Data on 15 molecules can be found in patent US8952157B2, “Apoptosis-inducing agents for the treatment of cancer and immune and autoimmune diseases” (AbbVie Inc., priority 2008, dated 2015).

SMILES strings stand for the structures.

The target in this assay is GST-Bcl-2 (Homo sapiens (Human), UniProt P10415). The assay is described as follows: Time Resolved-Fluorescence Resonance Energy Transfer (TR-FRET) Bcl-2 binding assay. The conditions noted are these: GST-Bcl-2 1 nM, F-Bak peptide probe 100 nM, Tb-anti-GST antibody 1 nM; Ki by Wang's equation. Here is the method: Determination of the utility of compounds having Formula (I) as binders to and inhibitors of anti-apoptotic Bcl-2 proteins was performed using the Time Resolved-Fluorescence Resonance Energy Transfer (TR-FRET) Assay. Tb-anti-GST antibody was purchased from Invitrogen (Catalog No. PV4216).
Sequence of GST-Bcl-2 (P10415 whole entry): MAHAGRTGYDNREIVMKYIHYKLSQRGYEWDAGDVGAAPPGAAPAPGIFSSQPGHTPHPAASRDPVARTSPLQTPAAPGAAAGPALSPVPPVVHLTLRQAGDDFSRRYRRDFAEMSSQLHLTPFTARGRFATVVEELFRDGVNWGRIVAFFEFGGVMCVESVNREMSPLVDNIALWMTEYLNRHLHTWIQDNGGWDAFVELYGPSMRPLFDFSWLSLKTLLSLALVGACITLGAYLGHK
Representative compounds were serially diluted in dimethyl sulfoxide (DMSO) starting at 50 μM (2× starting concentration; 10% DMSO) and 10 μL were transferred into a 384-well plate. The samples are then mixed on a shaker for 1 minute and incubated for an additional 3 hours at room temperature. For each assay, the probe/antibody and protein/probe/antibody were included on each assay plate as negative and positive controls, respectively. Fluorescence was measured on the Envision (Perkin Elmer) using a 340/35 nm excitation filter and 520/525 (F-Bak peptide) and 495/510 nm (Tb-labeled anti-Histidine antibody) emission filters.
The samples were then mixed on a shaker for 1 minute and incubated for an additional 3 hours at room temperature. For each assay, the probe/antibody and protein/probe/antibody were included on each assay plate as negative and positive controls, respectively. Fluorescence was measured on the Envision (Perkin Elmer) using a 340/35 nm excitation filter and 520/525 (F-Bak peptide) and 495/510 nm (Tb-labeled anti-Histidine antibody) emission filters.
The inhibition constant (Ki) is the dissociation constant of an enzyme-inhibitor complex or a protein/small molecule complex, wherein the small molecule is inhibiting binding of one protein to another protein. So a large Ki value indicates a low binding affinity and a small Ki value indicates a high binding affinity.
As to `CN(C)CCCNc1ccc(S(=O)(=O)NC(=O)c2ccc(N3CCN(Cc4ccccc4-c4ccc(Cl)cc4)CC3)cc2Oc2cccc3c2ccn3C)cc1[N+](=O)[O-]` [Example 16, 4-(4-((4′-chloro-1,1′-biphenyl-2-yl)methyl)piperazin-1-yl)-N-((4-((3-(dimethylamino)propyl)amino)-3-nitrophenyl)sulfonyl)-2-((1-methyl-1H-indol-4-yl)oxy)benzamide], affinity was put at a Ki of 3.04 nM.
`CC(=O)Nc1cccc(Oc2cc(N3CCN(Cc4ccccc4-c4ccc(Cl)cc4)CC3)ccc2C(=O)NS(=O)(=O)c2ccc(NCC3CCOCC3)c([N+](=O)[O-])c2)c1` [Example 17, 2-(3-(acetylamino)phenoxy)-4-(4-((4′-chloro-1,1′-biphenyl-2-yl)methyl)piperazin-1-yl)-N-((3-nitro-4-((tetrahydro-2H-pyran-4-ylmethyl)amino)phenyl)sulfonyl)benzamide]: the Ki (commonly a dissociation constant, usually derived from enzyme kinetics or from competition with a known ligand) was 5.58 nM.
In the case of `Nc1ccc(Oc2cc(N3CCN(Cc4ccccc4-c4ccc(Cl)cc4)CC3)ccc2C(=O)NS(=O)(=O)c2ccc(NCC3CCOCC3)c([N+](=O)[O-])c2)cc1` [Example 18, 2-(4-aminophenoxy)-4-(4-((4′-chloro-1,1′-biphenyl-2-yl)methyl)piperazin-1-yl)-N-((3-nitro-4-((tetrahydro-2H-pyran-4-ylmethyl)amino)phenyl)sulfonyl)benzamide], the Ki was determined as 2.49 nM.
Consider `Nc1cccc(Oc2cc(N3CCN(Cc4ccccc4-c4ccc(Cl)cc4)CC3)ccc2C(=O)NS(=O)(=O)c2ccc(NCC3CCOCC3)c([N+](=O)[O-])c2)c1` [Example 19, 2-(3-aminophenoxy)-4-(4-((4′-chloro-1,1′-biphenyl-2-yl)methyl)piperazin-1-yl)-N-((3-nitro-4-((tetrahydro-2H-pyran-4-ylmethyl)amino)phenyl)sulfonyl)benzamide], for which the inhibition constant (Ki) was found to be 1.68 nM.
`COc1cccc(Oc2cc(N3CCN(Cc4ccccc4-c4ccc(Cl)cc4)CC3)ccc2C(=O)NS(=O)(=O)c2ccc(NCC3CCOCC3)c([N+](=O)[O-])c2)c1` [Example 20, 4-(4-((4′-chloro-1,1′-biphenyl-2-yl)methyl)piperazin-1-yl)-2-(3-methoxyphenoxy)-N-((3-nitro-4-((tetrahydro-2H-pyran-4-ylmethyl)amino)phenyl)sulfonyl)benzamide] yielded an inhibition constant (Ki) of 3.96 nM.
The same measure for `CN(C)c1cccc(Oc2cc(N3CCN(Cc4ccccc4-c4ccc(Cl)cc4)CC3)ccc2C(=O)NS(=O)(=O)c2ccc(NCC3CCOCC3)c([N+](=O)[O-])c2)c1` [Example 21, 4-(4-((4′-chloro-1,1′-biphenyl-2-yl)methyl)piperazin-1-yl)-2-(3-(dimethylamino)phenoxy)-N-((3-nitro-4-((tetrahydro-2H-pyran-4-ylmethyl)amino)phenyl)sulfonyl)benzamide]: 14.1 nM.
The same measure for `N#Cc1cccc(Oc2cc(N3CCN(Cc4ccccc4-c4ccc(Cl)cc4)CC3)ccc2C(=O)NS(=O)(=O)c2ccc(NCC3CCOCC3)c([N+](=O)[O-])c2)c1` [Example 22, 4-(4-((4′-chloro-1,1′-biphenyl-2-yl)methyl)piperazin-1-yl)-2-(3-cyanophenoxy)-N-((3-nitro-4-((tetrahydro-2H-pyran-4-ylmethyl)amino)phenyl)sulfonyl)benzamide]: 5.46 nM; for `Cc1nc2ccc(Oc3cc(N4CCN(Cc5ccccc5-c5ccc(Cl)cc5)CC4)ccc3C(=O)NS(=O)(=O)c3ccc(NCC4CCOCC4)c([N+](=O)[O-])c3)cc2s1` [Example 23, 4-(4-((4′-chloro-1,1′-biphenyl-2-yl)methyl)piperazin-1-yl)-2-((2-methyl-1,3-benzothiazol-6-yl)oxy)-N-((3-nitro-4-((tetrahydro-2H-pyran-4-ylmethyl)amino)phenyl)sulfonyl)benzamide]: 8.27 nM; for `Cc1nc2cc(Oc3cc(N4CCN(Cc5ccccc5-c5ccc(Cl)cc5)CC4)ccc3C(=O)NS(=O)(=O)c3ccc(NCCCN4CCOCC4)c([N+](=O)[O-])c3)ccc2s1` [Example 24, 4-(4-((4′-chloro-1,1′-biphenyl-2-yl)methyl)piperazin-1-yl)-2-((2-methyl-1,3-benzothiazol-5-yl)oxy)-N-((4-((3-morpholin-4-ylpropyl)amino)-3-nitrophenyl)sulfonyl)benzamide]: 15 nM.
In turn, `Cc1nc2cc(Oc3cc(N4CCN(Cc5ccccc5-c5ccc(Cl)cc5)CC4)ccc3C(=O)NS(=O)(=O)c3ccc(NCCCN(C)C)c([N+](=O)[O-])c3)ccc2s1` [Example 25, 4-(4-((4′-chloro-1,1′-biphenyl-2-yl)methyl)piperazin-1-yl)-N-((4-((3-(dimethylamino)propyl)amino)-3-nitrophenyl)sulfonyl)-2-((2-methyl-1,3-benzothiazol-5-yl)oxy)benzamide] gave a Ki of 1.5 nM.
The same measure for `CN(C)C(=O)CCc1ccccc1Oc1cc(N2CCN(Cc3ccccc3-c3ccc(Cl)cc3)CC2)ccc1C(=O)NS(=O)(=O)c1ccc(NCC2CCOCC2)c([N+](=O)[O-])c1` [Example 26, 4-(4-((4′-chloro-1,1′-biphenyl-2-yl)methyl)piperazin-1-yl)-2-(2-(3-(dimethylamino)-3-oxopropyl)phenoxy)-N-((3-nitro-4-((tetrahydro-2H-pyran-4-ylmethyl)amino)phenyl)sulfonyl)benzamide]: 0.511 nM; for `CN(C)C(=O)Cc1ccccc1Oc1cc(N2CCN(Cc3ccccc3-c3ccc(Cl)cc3)CC2)ccc1C(=O)NS(=O)(=O)c1ccc(NCC2CCOCC2)c([N+](=O)[O-])c1` [Example 27, 4-(4-((4′-chloro-1,1′-biphenyl-2-yl)methyl)piperazin-1-yl)-2-(2-(2-(dimethylamino)-2-oxoethyl)phenoxy)-N-((3-nitro-4-((tetrahydro-2H-pyran-4-ylmethyl)amino)phenyl)sulfonyl)benzamide]: 2.21 nM.
The same measure for `CN(C)CCCc1ccccc1Oc1cc(N2CCN(Cc3ccccc3-c3ccc(Cl)cc3)CC2)ccc1C(=O)NS(=O)(=O)c1ccc(NCC2CCOCC2)c([N+](=O)[O-])c1` [Example 28, 4-(4-((4′-chloro-1,1′-biphenyl-2-yl)methyl)piperazin-1-yl)-2-(2-(3-(dimethylamino)propyl)phenoxy)-N-((3-nitro-4-((tetrahydro-2H-pyran-4-ylmethyl)amino)phenyl)sulfonyl)benzamide]: 1.33 nM; for `CN(C)CCc1ccccc1Oc1cc(N2CCN(Cc3ccccc3-c3ccc(Cl)cc3)CC2)ccc1C(=O)NS(=O)(=O)c1ccc(NCC2CCOCC2)c([N+](=O)[O-])c1` [Example 29, 4-(4-((4′-chloro-1,1′-biphenyl-2-yl)methyl)piperazin-1-yl)-2-(2-(2-(dimethylamino)ethyl)phenoxy)-N-((3-nitro-4-((tetrahydro-2H-pyran-4-ylmethyl)amino)phenyl)sulfonyl)benzamide]: 0.903 nM.
For `CN(C)C(=O)c1ccccc1Oc1cc(N2CCN(Cc3ccccc3-c3ccc(Cl)cc3)CC2)ccc1C(=O)NS(=O)(=O)c1ccc(NCC2CCOCC2)c([N+](=O)[O-])c1` [Example 30, 2-(5-(4-((4′-chlorobiphenyl-2-yl)methyl)piperazin-1-yl)-2-(3-nitro-4-((tetrahydro-2H-pyran-4-yl)methylamino)phenylsulfonylcarbamoyl)phenoxy)-N,N-dimethylbenzamide], the Ki came to 0.071 nM.
